Laboratory results taken from US9688721B2, “Tubulysin compounds, methods of making and use” (priority 2013, dated 2017).
Like-named read-outs stand apart in the source and are kept apart here.

What was measured:
[1] = tested on: N87 gastric cancer cells; conditions: ATP luminescence assay
Experimental: (§1) Tumor cell lines were obtained from the American Type Culture Collection (ATCC), P.O. Box 1549, Manassas, Va. 20108, USA, and cultured according to ATCC instructions. Cells were seeded at 1.0×10^3 cells/well in 96-well plates for 3 h for the ATP assays. 1:3 serial dilutions of the compounds were added to the wells. Plates were allowed to incubate for 24 to 72 h. […] The EC50 values—the concentration at which an agent inhibits or reduces cell proliferation by 50%—were determined using PRISM™ software, version 4.0 (GraphPad Software, La Jolla, Calif., USA).

[2] = tested on: H226 lung cancer cells; assay: ATP luminescence assay (CELLTITER-GLO), H226 cells; assay type: cell-based
Experimental: (§2) As controls, doxorubicin and the tubulysin analog Compound A, which contains an acetate group instead of a carbamate group at the Tuv subunit, were used. Compound A can be prepared according to the teachings of Cheng et al. 2011.
as §1

[3] = tested on: 786-O renal cancer cells; assay: ATP luminescence assay (CELLTITER-GLO), 786-O cells; assay type: cell-based
Experimental: as §2, §1

Structure (SMILES) | EC50 ([2]; Homo sapiens, NCI-H226) | EC50 ([3]; Homo sapiens, 786-0) | also measured
CC[C@H](C)[C@H](NC(=O)[C@H]1CCCCN1C)C(=O)N(C)[C@H](C[C@@H](OC(=O)Nc1ccccc1)c1nc(C(=O)N[C@@H](Cc2ccc(N)cc2)C[C@H](C)C(=O)O)cs1)C(C)C [Compound 75b] |  |  | EC50 [1]: 0.39 nM
COc1cccc2c1C(=O)c1c(O)c3c(c(O)c1C2=O)C[C@@](O)(C(=O)CO)C[C@@H]3O[C@H]1C[C@H](N)[C@H](O)[C@H](C)O1 [doxorubicin, reference compound] |  |  | EC50 ([2]; Homo sapiens, NCI-H226, H226 lung cancer cells, ATP luminescence assay, read-out: EC50): 115 nM; EC50 ([3]; Homo sapiens, 786-0, 786-O renal cancer cells, ATP luminescence assay, read-out: EC50): 68.9 nM
CC[C@H](C)[C@H](NC(=O)[C@H]1CCCCN1C)C(=O)N(C)[C@H](C[C@@H](OC(=O)N(C)C)c1nc(C(=O)N[C@@H](Cc2ccc(N)cc2)C[C@H](C)C(=O)O)cs1)C(C)C [Compound 75c] |  |  | EC50 [1]: 5.4 nM
CCOC(=O)C(C)C[C@H](Cc1ccccc1)NC(=O)c1csc([C@@H](C[C@H](C(C)C)N(CCc2ccc(N)cc2)C(=O)[C@@H](NC(=O)[C@H]2CCCCN2C)[C@@H](C)CC)OC(=O)NC)n1 (some centres unmarked) [(I-5)] | 19.5 nM | 22.9 nM | 
CC[C@H](C)[C@H](NC(=O)[C@H]1CCCCN1C)C(=O)N(COC(=O)CC(C)C)[C@H](C[C@@H](OC(C)=O)c1nc(C(=O)N[C@@H](Cc2ccccc2)C[C@H](C)C(=O)O)cs1)C(C)C [tubulysin D, reference compound] |  |  | EC50 ([2]; H226 lung cancer cells, ATP luminescence assay, read-out: EC50): 0.05 nM; EC50 ([3]; 786-O renal cancer cells, ATP luminescence assay, read-out: EC50): 0.02 nM
CC[C@H](C)[C@H](NC(=O)[C@H]1CCCCN1C)C(=O)N(CCc1ccc(N)cc1)[C@H](C[C@@H](OC(=O)NC)c1nc(C(=O)N[C@@H](Cc2ccccc2)CC(C)C(=O)OC)cs1)C(C)C (some centres unmarked) [(I-6)] | 9.9 nM | 22.8 nM | 
CC[C@H](C)[C@H](NC(=O)[C@H]1CCCCN1C)C(=O)N(CCc1ccc(N)cc1)[C@H](C[C@@H](OC(=O)NC)c1nc(C(=O)N[C@@H](Cc2ccccc2)CC(C)C(=O)O)cs1)C(C)C (some centres unmarked) [(I-7)] | 15.4 nM | 12.5 nM | 
CC[C@H](C)[C@H](NC(=O)[C@H]1CCCCN1C)C(=O)N(C)[C@H](C[C@@H](OC(C)=O)c1nc(C(=O)N[C@@H](Cc2ccccc2)C[C@H](C)C(=O)O)cs1)C(C)C [Compound A, reference compound] | 2.4 nM | 1.2 nM | 
